What was measured:
[1] = tested on: cell line 25H9 (CHO cells); assay: Example 1: cell number (hemocytometer) and viability (trypan blue); assay type: cell-based, Chinese hamster
Experimental: The following experiment was designed to test whether decitabine can induce the production of a protein, in this case a recombinant soluble form of the human interleukin 1 receptor type II (IL-1-R-II), at either 31° C. or 34° C. Soluble versions of IL-1R-II and methods for producing it are described in U.S. Pat. No. 5,767,064. DNA encoding a soluble form of the human IL-1R-II was inserted into pG3.6, which is described in Morris et al. ((1998), Cytotechnology 28:9-17). This construct was used to transfect CHO cells to produce cell lines, including 25H9, that produce IL-1R-II protein.
(§1) About 2×10^6 cells of cell line 25H9 were inoculated into 30 milliliters of serum-free medium and incubated at the temperatures indicated in Table 1 in vented shake flasks. At the times indicated in Table 1, samples were taken from each flask to determine IL-1R-II titer, cell number, and cell viability. IL-1R-II protein titer was determined by ELISA assay. Cell number was determined by counting cells in a hemocytometer. Cell viability was determined by trypan blue staining and counting stained cells in a hemocytometer. Cumulative viable cell density (CVCD) is the area under the curve of a plot of the viable cell density versus time (in units of cells/ml/day). Productivity (pg of IL-1R-II/cell/day) was determined by dividing the protein titer on a particular day by the CVCD on the same day. Cells were fed with amino acids on days 2 and 5, and dextrose was added periodically in order to maintain levels above 2.0 g/L. All samples were done in duplicate, and the data shown is an average value.

[2] = tested on: cell line 25H9 (CHO cells that produce IL-1R-II protein); assay: Example 2: optimization of temperature and decitabine concentration, IL-1R-II production; assay type: cell-based, Chinese hamster
Experimental: as §1
To determine an optimum temperature and decitabine concentration, three temperatures (30° C., 31° C., and 32° C.) and three decitabine concentrations (10 μM, 15 μM, and 20 μM) were tested. A 31° C. culture containing 0.5 mM sodium butyrate was grown as a control. […] See e.g. International Application Nos. WO 89/06686 and WO 87/05626. The experiment was performed as in Example 1 except that the inducer concentrations, temperatures, and days at which data was collected are as indicated in Table 2 and FIG. 1.

[3] = 31° C., 1 μM decitabine, day 10
[4] = 31° C., 5 μM decitabine, day 10
[5] = 31° C., 10 μM decitabine, day 0
[6] = 31° C., 10 μM decitabine, day 3
[7] = 31° C., 10 μM decitabine, day 5
[8] = 31° C., 10 μM decitabine, day 7
[9] = 31° C., 10 μM decitabine, day 10
[10] = 34° C., 1 μM decitabine, day 10
[11] = 34° C., 5 μM decitabine, day 10
[12] = 34° C., 10 μM decitabine, day 0
[13] = 34° C., 10 μM decitabine, day 3
[14] = 34° C., 10 μM decitabine, day 5
[15] = 34° C., 10 μM decitabine, day 7

## Nc1ncn([C@H]2C[C@H](O)[C@@H](CO)O2)c(=O)n1 [decitabine, 5-aza-2′-deoxycytidine]
[1]; 31° C., 1 μM decitabine, day 0
  Cumulative Viable Cell Density: 0 mL⁻¹ day⁻¹
  Viable Cell Density: 1.8e+06 mL⁻¹
[1]; 31° C., 1 μM decitabine, day 3
  Cumulative Viable Cell Density: 8.3e+06 mL⁻¹ day⁻¹
  Viable Cell Density: 3.7e+06 mL⁻¹
[1]; 31° C., 1 μM decitabine, day 5
  Cumulative Viable Cell Density: 1.7e+07 mL⁻¹ day⁻¹
  Viable Cell Density: 5e+06 mL⁻¹
[1]; 31° C., 1 μM decitabine, day 7
  Cumulative Viable Cell Density: 2.77e+07 mL⁻¹ day⁻¹
  Viable Cell Density: 5.7e+06 mL⁻¹
[1]; [3]
  Cumulative Viable Cell Density: 4.38e+07 mL⁻¹ day⁻¹
  Viable Cell Density: 5.1e+06 mL⁻¹
[1]; 31° C., 5 μM decitabine, day 0
  Cumulative Viable Cell Density: 0 mL⁻¹ day⁻¹
  Viable Cell Density: 1.8e+06 mL⁻¹
[1]; 31° C., 5 μM decitabine, day 3
  Cumulative Viable Cell Density: 8.5e+06 mL⁻¹ day⁻¹
  Viable Cell Density: 3.8e+06 mL⁻¹
[1]; 31° C., 5 μM decitabine, day 5
  Cumulative Viable Cell Density: 1.57e+07 mL⁻¹ day⁻¹
  Viable Cell Density: 3.5e+06 mL⁻¹
[1]; 31° C., 5 μM decitabine, day 7
  Cumulative Viable Cell Density: 2.28e+07 mL⁻¹ day⁻¹
  Viable Cell Density: 3.6e+06 mL⁻¹
[1]; [4]
  Cumulative Viable Cell Density: 4e+07 mL⁻¹ day⁻¹
  Viable Cell Density: 7.8e+06 mL⁻¹
[1]; [5]
  Cumulative Viable Cell Density: 0 mL⁻¹ day⁻¹
  Viable Cell Density: 1.8e+06 mL⁻¹
[1]; [6]
  Cumulative Viable Cell Density: 7.4e+06 mL⁻¹ day⁻¹
  Viable Cell Density: 3.1e+06 mL⁻¹
[1]; [7]
  Cumulative Viable Cell Density: 1.44e+07 mL⁻¹ day⁻¹
  Viable Cell Density: 3.9e+06 mL⁻¹
[1]; [8]
  Cumulative Viable Cell Density: 2.15e+07 mL⁻¹ day⁻¹
  Viable Cell Density: 3.3e+06 mL⁻¹
[1]; [9]
  Cumulative Viable Cell Density: 3.18e+07 mL⁻¹ day⁻¹
  Viable Cell Density: 3.6e+06 mL⁻¹
[1]; 34° C., 1 μM decitabine, day 0
  Cumulative Viable Cell Density: 0 mL⁻¹ day⁻¹
  Viable Cell Density: 1.8e+06 mL⁻¹
[1]; 34° C., 1 μM decitabine, day 3
  Cumulative Viable Cell Density: 1.14e+07 mL⁻¹ day⁻¹
  Viable Cell Density: 5.7e+06 mL⁻¹
[1]; 34° C., 1 μM decitabine, day 5
  Cumulative Viable Cell Density: 2.55e+07 mL⁻¹ day⁻¹
  Viable Cell Density: 8.4e+06 mL⁻¹
[1]; 34° C., 1 μM decitabine, day 7
  Cumulative Viable Cell Density: 4.15e+07 mL⁻¹ day⁻¹
  Viable Cell Density: 7.6e+06 mL⁻¹
[1]; [10]
  Cumulative Viable Cell Density: 5.69e+07 mL⁻¹ day⁻¹
  Viable Cell Density: 2.7e+06 mL⁻¹
[1]; 34° C., 5 μM decitabine, day 0
  Cumulative Viable Cell Density: 0 mL⁻¹ day⁻¹
  Viable Cell Density: 1.8e+06 mL⁻¹
[1]; 34° C., 5 μM decitabine, day 3
  Cumulative Viable Cell Density: 1.16e+07 mL⁻¹ day⁻¹
  Viable Cell Density: 5.9e+06 mL⁻¹
[1]; 34° C., 5 μM decitabine, day 5
  Cumulative Viable Cell Density: 2.47e+07 mL⁻¹ day⁻¹
  Viable Cell Density: 7.2e+06 mL⁻¹
[1]; 34° C., 5 μM decitabine, day 7
  Cumulative Viable Cell Density: 3.81e+07 mL⁻¹ day⁻¹
  Viable Cell Density: 6.3e+06 mL⁻¹
[1]; [11]
  Cumulative Viable Cell Density: 5.27e+07 mL⁻¹ day⁻¹
  Viable Cell Density: 3.4e+06 mL⁻¹
[1]; [12]
  Cumulative Viable Cell Density: 0 mL⁻¹ day⁻¹
  Viable Cell Density: 1.8e+06 mL⁻¹
[1]; [13]
  Cumulative Viable Cell Density: 9.8e+06 mL⁻¹ day⁻¹
  Viable Cell Density: 4.7e+06 mL⁻¹
[1]; [14]
  Cumulative Viable Cell Density: 1.93e+07 mL⁻¹ day⁻¹
  Viable Cell Density: 4.8e+06 mL⁻¹
[1]; [15]
  Cumulative Viable Cell Density: 2.73e+07 mL⁻¹ day⁻¹
  Viable Cell Density: 3.2e+06 mL⁻¹
[2]; 10 μM decitabine, 8 days
  IL-1R-II produced at 31° C. versus 30° C. or 32° C. (FIG. 1): more IL-1R-II
[2]; 30° C.
  IL-1R-II titer in 20 μM versus 10 μM or 15 μM decitabine: higher titer of IL-1R-II
[2]; 30° C., 10 μM decitabine, day 0
  IL1R-II Titer: 0.0 µg/mL
[2]; 30° C., 10 μM decitabine, day 3
  IL1R-II Titer: 68.2 µg/mL
